Reference: PMC8025741 (Journal of medicinal chemistry, 2020)
“Also recorded” adds a separate entry of the source. Where a name gives a salt, the structure may show the parent alone. Read-outs that look alike come from different tables or passages of the source.

Columns and labels:
[1] = stability studies and metabolite identification in mice and human microsomes; conditions: for metabolic stability (in words): mice and human microsomes
5XFAD mice = assay: fear conditioning test in 5XFAD mice; type: in vivo, mouse; conditions: 5XFAD mice at 8 months, 10 mg/kg ip daily for 5 months, listed as 1 (PDDC)
[2] = in vitro metabolic stability, human liver microsomes; conditions: pH 7.4
[3] = cited from earlier work
[4] = cited from earlier work; remark: listed apart in the source

SMILES	metabolic stability (in words) [1]	further results
COc1ccc(-c2c(C)nc3c(N4CC[C@@H](NC(=O)Nc5ccccc5)C4)cc(C)nn23)cc1OC [Compound 59, (R)-1-(1-(3-(3,4-Dimethoxyphenyl)-2,6-dimethylimidazo[1,2-b]pyridazin-8-yl)pyrrolidin-3-yl)-3-phenylurea]	generally stable	–
COc1ccc(-c2c(C)nc3c(N4CC[C@@H](NC(=O)C(F)(F)F)C4)cc(C)nn23)cc1OC [Compound 52, (R)-N-(1-(3-(3,4-Dimethoxyphenyl)-2,6-dimethylimidazo[1,2-b]pyridazin-8-yl)pyrrolidin-3-yl)-2,2,2-trifluoroacetamide]	generally stable	–
COc1ccc(-c2c(C)nc3c(N4CC[C@@H](NS(=O)(=O)C5CC5)C4)cc(C)nn23)cc1OC [Compound 66, (R)-N-(1-(3-(3,4-Dimethoxyphenyl)-2,6-dimethylimidazo[1,2-b]pyridazin-8-yl)pyrrolidin-3-yl)cyclopropanesulfonamide]	generally stable; also recorded: completely stable	–
CCCCCC(=O)N[C@@H]1CCN(c2cc(C)nn3c(-c4ccc(OC)c(OC)c4)c(C)nc23)C1 [Compound 53, (R)-N-(1-(3-(3,4-Dimethoxyphenyl)-2,6-dimethylimidazo[1,2-b]pyridazin-8-yl)pyrrolidin-3-yl)hexanamide Hydrochloride]	generally stable	–
COc1ccc(-c2c(C)nc3c(N4CC[C@@H](NS(=O)(=O)c5cccs5)C4)cc(C)nn23)cc1OC [Compound 73, (R)-N-(1-(3-(3,4-Dimethoxyphenyl)-2,6-dimethylimidazo[1,2-b]pyridazin-8-yl)pyrrolidin-3-yl)thiophene-2-sulfonamide]	generally stable; also recorded: completely stable	–
COc1ccc(-c2c(C)nc3c(N4CC[C@@H](NC(=O)Oc5ccccc5)C4)cc(C)nn23)cc1OC [Compound 1, Phenyl(R)-(1-(3-(3,4-Dimethoxyphenyl)-2,6-dimethylimidazo[1,2-b]pyridazin-8-yl)pyrrolidin-3-yl)carbamate]	generally stable	contextual fear memory (freezing, day 2) (5XFAD mice): performed like WT controls; remaining at 1 h, 1 µM [2]: 103 ± 14%; metabolite identification (MET-ID) ([1]; human and mouse liver microsomes, Figure S1): O-demethylated metabolite
O=c1[nH]c(=S)[nH]c(-c2ccccc2)c1Cc1c(O)ccc2ccccc12 [cambinol]	–	metabolic stability (in words) [3]: poor metabolic stability
COc1ccc(-c2c(C)nc3c(N4CCCC4)cc(C)nn23)cc1OC [Compound 76c, 3-(3,4-Dimethoxyphenyl)-2,6-dimethyl-8-(pyrrolidin-1-yl)imidazo[1,2-b]pyridazine]	metabolically unstable	–
COc1cc(-c2nc(-c3cccs3)c(-c3ccccc3)[nH]2)cc(OC)c1O [DPTIP]	–	oral bioavailability (in words) [4]: not orally bioavailable; brain penetration (in words) ([4]; vs PDDC): poor brain penetration
CC(=O)N[C@@H]1CCN(c2cc(C)nn3c(-c4ccc(OC(F)(F)F)cc4)c(C)nc23)C1 [Compound 47, (R)-N-(1-(2,6-Dimethyl-3-(4-(trifluoromethoxy)-phenyl)imidazo[1,2-b]pyridazin-8-yl)pyrrolidin-3-yl)acetamide]	reasonable metabolic stability	–
